These molecules were tested against T1, GST-tagged full-length FAK enzyme (PTK2) (Homo sapiens, UniProt Q05397) (assay: Biochemical Omnia Assay (FAK)). Conditions: mean IC50; [ATP] = 50uM; read-out: FAK Activity Biochemical OMNIA; [ATP] = 50uM.
T1 construct: GST-tagged full-length FAK enzyme (PTK2, Invitrogen PV4085); GST; purchased Invitrogen PV4085
Description: Biochemical Omnia Assay Protocol
The Omnia Assay (Invitrogen) has been optimized for GST-tagged full-length FAK enzyme (PTK2, Invitrogen PV4085).
All compound concentrations were assayed in duplicate. Initial compound dilutions were prepared at 100× concentration in 100% DMSO from a 10 mM stock solution. Compounds were further diluted 1:25 in assay buffer resulting in a 4× concentrated solution.
In running the assay, 5 μL of the above 4× concentrated compound solution (or 4% DMSO for positive controls) was added to the assay plate followed by 5 μL of a solution containing peptide (40 μM) and ATP (200 μM) in assay buffer. The reaction was initiated by the addition of 10 μL of FAK (50 nM) in assay buffer, or assay buffer alone for negative controls. The increase in fluorescence due to peptide phosphorylation was monitored continuously as a function of time using a Spectramax M5 plate reader (Molecular Devices) equipped with SoftMax Pro 5.2 software.
IC50 values were determined from the slopes of the linear progress curves by non-linear curve-fitting using GraphPad Prism 5 (GraphPad Software, Inc.).

T1 sequence (Q05397 whole entry): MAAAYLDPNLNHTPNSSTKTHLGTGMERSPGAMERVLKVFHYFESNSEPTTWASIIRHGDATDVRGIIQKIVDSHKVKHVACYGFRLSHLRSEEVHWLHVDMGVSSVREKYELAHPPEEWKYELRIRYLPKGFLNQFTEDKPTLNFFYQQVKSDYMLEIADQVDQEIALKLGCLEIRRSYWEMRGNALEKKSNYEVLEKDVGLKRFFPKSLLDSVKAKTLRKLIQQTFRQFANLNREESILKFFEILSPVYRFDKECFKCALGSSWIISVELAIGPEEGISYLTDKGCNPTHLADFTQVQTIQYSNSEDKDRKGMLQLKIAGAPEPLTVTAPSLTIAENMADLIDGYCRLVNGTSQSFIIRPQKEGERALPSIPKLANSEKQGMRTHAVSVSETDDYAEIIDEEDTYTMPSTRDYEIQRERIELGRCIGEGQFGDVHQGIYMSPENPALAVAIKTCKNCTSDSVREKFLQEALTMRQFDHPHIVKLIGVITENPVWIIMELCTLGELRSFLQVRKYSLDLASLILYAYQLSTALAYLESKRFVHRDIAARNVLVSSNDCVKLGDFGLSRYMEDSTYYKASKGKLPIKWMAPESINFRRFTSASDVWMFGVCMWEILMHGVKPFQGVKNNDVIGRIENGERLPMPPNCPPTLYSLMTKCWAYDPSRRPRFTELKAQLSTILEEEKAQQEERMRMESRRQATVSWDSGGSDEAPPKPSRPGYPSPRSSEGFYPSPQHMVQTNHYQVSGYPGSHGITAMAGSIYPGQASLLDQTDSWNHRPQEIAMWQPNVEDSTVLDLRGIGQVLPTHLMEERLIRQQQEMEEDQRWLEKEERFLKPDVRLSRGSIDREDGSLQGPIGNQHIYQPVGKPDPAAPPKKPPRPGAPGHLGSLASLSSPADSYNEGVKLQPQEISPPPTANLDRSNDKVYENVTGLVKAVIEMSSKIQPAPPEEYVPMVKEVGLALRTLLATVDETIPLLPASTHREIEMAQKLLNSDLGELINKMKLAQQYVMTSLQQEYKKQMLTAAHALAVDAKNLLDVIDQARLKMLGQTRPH

Row | Compound | IC50
1 | CCP1(=O)Cc2ccc(c(OC)c2)Nc2ncc(C(F)(F)F)c(n2)Nc2ccc(nc2C(=O)NC)-c2cnn(c2)CCCO1 (racemic) [Example 67] | < 400 nM
2 | CNC(=O)c1nc2ccc1Nc1nc(ncc1C(F)(F)F)Nc1ccc(cc1OC)CP(=O)(C(C)C)OCCCn1cc-2cn1 (racemic) [Example 68] | < 400 nM
3 | CCOP1(=O)Cc2ccc(c(OC)c2)Nc2ncc(C(F)(F)F)c(n2)Nc2ccc(nc2C(=O)NC)-c2cnn(c2)CC(C)CO1 (single isomer, unassigned) [Example 18] | < 400 nM
4 | CCOP1(=O)Cc2ccc(c(Cl)c2)Nc2ncc(C(F)(F)F)c(n2)Nc2ccc(nc2C(=O)NC)-c2cnn(c2)CCCO1 (single isomer, unassigned) [Example 24A] | < 400 nM
5 | CCOP1(=O)Cc2ccc(c(OC)c2)Nc2ncc(C(F)(F)F)c(n2)Nc2ccc(nc2C(=O)NC)-c2cn(nc2C)CCCO1 (single isomer, unassigned) [Example 34A] | < 400 nM
6 | CCOP1(=O)Cc2ccc(c(OC)c2)Nc2ncc(C(F)(F)F)c(n2)Nc2ccc(nc2C(=O)NC)-c2cnn(c2C)CCCO1 (single isomer, unassigned) [Example 35A] | < 400 nM
7 | CCOP1(=O)Cc2ccc(c(OC)c2)Nc2ncc(C(F)(F)F)c(n2)Nc2ccc(nc2C(=O)NC)-c2cnn(c2C)CCCO1 (single isomer, unassigned) [Example 35B] | < 400 nM
8 | CCCP1(=O)Cc2ccc(c(OC)c2)Nc2ncc(C(F)(F)F)c(n2)Nc2ccc(nc2C(=O)NC)-c2cnn(c2)CCCO1 (single isomer, unassigned) [Example 37A] | < 400 nM
9 | CCOP1(=O)Cc2ccc(c(OC)c2)Nc2ncc(C(F)(F)F)c(n2)Nc2ccc(nc2C(=O)NC)-c2cn(nc2Cl)CCCO1 (single isomer, unassigned) [Example 49A] | < 400 nM
10 | CCOP1(=O)Cc2ccc(c(OC)c2)Nc2ncc(C(F)(F)F)c(n2)Nc2ccc(nc2C(=O)NC)-c2cnn(c2)C(C)(C)CCO1 (single isomer, unassigned) [Example 50A] | < 400 nM
11 | CNC(=O)c1nc2ccc1Nc1nc(ncc1C(F)(F)F)Nc1ccc(cc1OC)CP(C)(=O)OCCCn1cc-2cn1 (single isomer, unassigned) [Example 61A] | < 400 nM
12 | CCP1(=O)Cc2ccc(c(OC)c2)Nc2ncc(C(F)(F)F)c(n2)Nc2ccc(nc2C(=O)NC)-c2cnn(c2)CCCO1 (single isomer, unassigned) [Example 67A] | < 400 nM

Same assay, conditions: read-out: FAK Activity Biochemical OMNIA; [ATP] = 50uM; mean IC50; [ATP] = 50uM

Row | Compound | IC50
13 | CCOP1(=O)Cc2ccc(c(OC)c2)Nc2ncc(C(F)(F)F)c(n2)Nc2ccc(nc2C(=O)NC)-c2cnn(c2)CC(F)(F)CO1 (single isomer, unassigned) [Example 59A] | < 400 nM

These molecules were tested against T2, FAK (Homo sapiens, UniProt Q05397) (assay: Cell-based capture ELISA for inhibition of FAK autophosphorylation [pY397] in U87MG cells). Conditions: 50% (v/v) human plasma, mean IC50, read-out: FAK Activity Mechanistic (U87MG) HP.
T2 construct: endogenous in cells; host or cells: U87MG glioblastoma cells (ATCC HTB-14)
T2 sequence (Q05397 whole entry): as above
Description: Cell-Based Assays for Inhibition of FAK Autophosphorylation: MiaPaCa2 and U87MG
The ability of compounds to inhibit FAK autophosphorylation was determined in a cell-based capture ELISA assay using U87MG glioblastoma cells (ATCC, Cat # HTB-14) and the FAK [pY397]ELISA kit from Invitrogen (KHO0441). The assay determines the ability of compounds to block endogenous autophosphorylation of FAK stimulated by fibronectin. Cells plated on fibronectin coated 96-well plate were incubated with compounds at various concentrations in the complete growth medium for 2 h. Cell lysates were then prepared and FAK protein was captured onto a FAK antibody-coated 96-well ELISA plate. The phosphotyrosine content of FAK protein was then monitored by quantitation of degree of binding of an antibody that recognizes only the phosphorylated FAK at Y397 within the captured protein.
Reagents Provided in Biosource FAK [pY397]
Cultures of U87MG cells growing in MEM (Earles) containing non-essential amino acids, sodium pyruvate (1 mM), […] (1%) and 10% fetal bovine serum were detached by trypsin-EDTA and suspended in cell growth medium. Cells were then plated onto fibronectin (600 ng/well)-coated 96-well flat bottom plates at 1.7×10^4 cells per well in 60 uL cell growth medium and incubated overnight at 37° C. in a CO2 incubator.
Compound dilutions were prepared from 10 mM DMSO stocks by dilution in cell growth medium, the final concentration of DMSO in the assay being 0.6%. […] The cells were then incubated with compounds at 37° C. for 2 h. The medium was removed by aspiration and cells were lysed by addition of 20 uL of ice-cold cell lysis buffer per well. The plates were kept on ice for 20 min and 50 uL of standard diluent was added to each well. 50 uL of cell lysate from each well was transferred to respective wells in an assay plate and 50 uL of detection antibody was added to all wells except H1-H6 which were no antibody control wells. Capture assay plates were incubated overnight in a cold room.
Following incubation of the cell lysates and detection antibodies in the ELISA plate, the wells were washed 4 times with 120 uL of wash buffer (1×), then 100 uL of diluted HRP conjugated antibody (1:100 dil in diluent) was added to each well, and the plate was incubated at RT for 30 min. The wells were then washed for 4 times with 120 uL of wash buffer (1×) and 100 uL of chromogen was added to each well and incubated in the dark at RT for 5-10 min. 100 uL of stop solution was added to each well and the absorbance measured at 450 nm, 0.1 s.
Comparison of the assay signals obtained in the presence of compound with those of positive and negative controls (cells with no compound and no detection antibody being added), allows degree of inhibition of phospho-FAK [Y397] to be determined over a range of compound concentrations. […] The assay as described above was modified to determine the effect of inclusion of 50% (v/v) mouse or human plasma. In this assay, the compound plate was prepared as 2× concentration in 100 uL of 100% mouse or human plasma, and 60 uL of this was added to 60 uL of culture medium and incubated at 37° C. incubator for 2 h. The rest of the assay was carried out as described above.

Row | Compound | IC50
14 | CCP1(=O)Cc2ccc(c(OC)c2)Nc2ncc(C(F)(F)F)c(n2)Nc2ccc(nc2C(=O)NC)-c2cnn(c2)CCCO1 (racemic) [Example 67] | < 400 nM
15 | CNC(=O)c1nc2ccc1Nc1nc(ncc1C(F)(F)F)Nc1ccc(cc1OC)CP(=O)(C(C)C)OCCCn1cc-2cn1 (racemic) [Example 68] | < 400 nM
16 | CCOP1(=O)Cc2ccc(c(OC)c2)Nc2ncc(C(F)(F)F)c(n2)Nc2ccc(nc2C(=O)NC)-c2cnn(c2)CC(C)CO1 (single isomer, unassigned) [Example 18] | < 400 nM
17 | CCOP1(=O)Cc2ccc(c(Cl)c2)Nc2ncc(C(F)(F)F)c(n2)Nc2ccc(nc2C(=O)NC)-c2cnn(c2)CCCO1 (single isomer, unassigned) [Example 24A] | > 4000 nM
18 | CCOP1(=O)Cc2ccc(c(OC)c2)Nc2ncc(C(F)(F)F)c(n2)Nc2ccc(nc2C(=O)NC)-c2cn(nc2C)CCCO1 (single isomer, unassigned) [Example 34A] | 400 to 4000 nM
19 | CCOP1(=O)Cc2ccc(c(OC)c2)Nc2ncc(C(F)(F)F)c(n2)Nc2ccc(nc2C(=O)NC)-c2cnn(c2C)CCCO1 (single isomer, unassigned) [Example 35A] | 400 to 4000 nM
20 | CCOP1(=O)Cc2ccc(c(OC)c2)Nc2ncc(C(F)(F)F)c(n2)Nc2ccc(nc2C(=O)NC)-c2cnn(c2C)CCCO1 (single isomer, unassigned) [Example 35B] | < 400 nM
21 | CCCP1(=O)Cc2ccc(c(OC)c2)Nc2ncc(C(F)(F)F)c(n2)Nc2ccc(nc2C(=O)NC)-c2cnn(c2)CCCO1 (single isomer, unassigned) [Example 37A] | 400 to 4000 nM
22 | CCOP1(=O)Cc2ccc(c(OC)c2)Nc2ncc(C(F)(F)F)c(n2)Nc2ccc(nc2C(=O)NC)-c2cn(nc2Cl)CCCO1 (single isomer, unassigned) [Example 49A] | > 4000 nM
23 | CCOP1(=O)Cc2ccc(c(OC)c2)Nc2ncc(C(F)(F)F)c(n2)Nc2ccc(nc2C(=O)NC)-c2cnn(c2)C(C)(C)CCO1 (single isomer, unassigned) [Example 50A] | 400 to 4000 nM
24 | CCOP1(=O)Cc2ccc(c(OC)c2)Nc2ncc(C(F)(F)F)c(n2)Nc2ccc(nc2C(=O)NC)-c2cnn(c2)CC(F)(F)CO1 (single isomer, unassigned) [Example 59A] | 400 to 4000 nM
25 | CNC(=O)c1nc2ccc1Nc1nc(ncc1C(F)(F)F)Nc1ccc(cc1OC)CP(C)(=O)OCCCn1cc-2cn1 (single isomer, unassigned) [Example 61A] | < 400 nM
26 | CCP1(=O)Cc2ccc(c(OC)c2)Nc2ncc(C(F)(F)F)c(n2)Nc2ccc(nc2C(=O)NC)-c2cnn(c2)CCCO1 (single isomer, unassigned) [Example 67A] | 400 to 4000 nM

Same assay, conditions: 50% (v/v) mouse plasma, mean IC50, read-out: FAK Activity Mechanistic (U87MG) MP

Row | Compound | IC50
27 | CCP1(=O)Cc2ccc(c(OC)c2)Nc2ncc(C(F)(F)F)c(n2)Nc2ccc(nc2C(=O)NC)-c2cnn(c2)CCCO1 (racemic) [Example 67] | < 400 nM
28 | CNC(=O)c1nc2ccc1Nc1nc(ncc1C(F)(F)F)Nc1ccc(cc1OC)CP(=O)(C(C)C)OCCCn1cc-2cn1 (racemic) [Example 68] | < 400 nM
29 | CCOP1(=O)Cc2ccc(c(Cl)c2)Nc2ncc(C(F)(F)F)c(n2)Nc2ccc(nc2C(=O)NC)-c2cnn(c2)CCCO1 (single isomer, unassigned) [Example 24A] | 400 to 4000 nM
30 | CCCP1(=O)Cc2ccc(c(OC)c2)Nc2ncc(C(F)(F)F)c(n2)Nc2ccc(nc2C(=O)NC)-c2cnn(c2)CCCO1 (single isomer, unassigned) [Example 37A] | 400 to 4000 nM
31 | CCOP1(=O)Cc2ccc(c(OC)c2)Nc2ncc(C(F)(F)F)c(n2)Nc2ccc(nc2C(=O)NC)-c2cn(nc2Cl)CCCO1 (single isomer, unassigned) [Example 49A] | 400 to 4000 nM
32 | CNC(=O)c1nc2ccc1Nc1nc(ncc1C(F)(F)F)Nc1ccc(cc1OC)CP(C)(=O)OCCCn1cc-2cn1 (single isomer, unassigned) [Example 61A] | < 400 nM
33 | CCP1(=O)Cc2ccc(c(OC)c2)Nc2ncc(C(F)(F)F)c(n2)Nc2ccc(nc2C(=O)NC)-c2cnn(c2)CCCO1 (single isomer, unassigned) [Example 67A] | 400 to 4000 nM

Same assay, conditions: no plasma present, mean IC50, read-out: FAK Activity Mechanistic (U87MG) NP

Row | Compound | IC50
34 | CCP1(=O)Cc2ccc(c(OC)c2)Nc2ncc(C(F)(F)F)c(n2)Nc2ccc(nc2C(=O)NC)-c2cnn(c2)CCCO1 (racemic) [Example 67] | < 400 nM
35 | CNC(=O)c1nc2ccc1Nc1nc(ncc1C(F)(F)F)Nc1ccc(cc1OC)CP(=O)(C(C)C)OCCCn1cc-2cn1 (racemic) [Example 68] | < 400 nM
36 | CCOP1(=O)Cc2ccc(c(OC)c2)Nc2ncc(C(F)(F)F)c(n2)Nc2ccc(nc2C(=O)NC)-c2cnn(c2)CC(C)CO1 (single isomer, unassigned) [Example 18] | < 400 nM
37 | CCOP1(=O)Cc2ccc(c(Cl)c2)Nc2ncc(C(F)(F)F)c(n2)Nc2ccc(nc2C(=O)NC)-c2cnn(c2)CCCO1 (single isomer, unassigned) [Example 24A] | < 400 nM
38 | CCOP1(=O)Cc2ccc(c(OC)c2)Nc2ncc(C(F)(F)F)c(n2)Nc2ccc(nc2C(=O)NC)-c2cn(nc2C)CCCO1 (single isomer, unassigned) [Example 34A] | < 400 nM
39 | CCOP1(=O)Cc2ccc(c(OC)c2)Nc2ncc(C(F)(F)F)c(n2)Nc2ccc(nc2C(=O)NC)-c2cnn(c2C)CCCO1 (single isomer, unassigned) [Example 35A] | < 400 nM
40 | CCOP1(=O)Cc2ccc(c(OC)c2)Nc2ncc(C(F)(F)F)c(n2)Nc2ccc(nc2C(=O)NC)-c2cnn(c2C)CCCO1 (single isomer, unassigned) [Example 35B] | < 400 nM
41 | CCCP1(=O)Cc2ccc(c(OC)c2)Nc2ncc(C(F)(F)F)c(n2)Nc2ccc(nc2C(=O)NC)-c2cnn(c2)CCCO1 (single isomer, unassigned) [Example 37A] | < 400 nM
42 | CCOP1(=O)Cc2ccc(c(OC)c2)Nc2ncc(C(F)(F)F)c(n2)Nc2ccc(nc2C(=O)NC)-c2cn(nc2Cl)CCCO1 (single isomer, unassigned) [Example 49A] | < 400 nM
43 | CCOP1(=O)Cc2ccc(c(OC)c2)Nc2ncc(C(F)(F)F)c(n2)Nc2ccc(nc2C(=O)NC)-c2cnn(c2)C(C)(C)CCO1 (single isomer, unassigned) [Example 50A] | < 400 nM
44 | CCOP1(=O)Cc2ccc(c(OC)c2)Nc2ncc(C(F)(F)F)c(n2)Nc2ccc(nc2C(=O)NC)-c2cnn(c2)CC(F)(F)CO1 (single isomer, unassigned) [Example 59A] | < 400 nM
45 | CNC(=O)c1nc2ccc1Nc1nc(ncc1C(F)(F)F)Nc1ccc(cc1OC)CP(C)(=O)OCCCn1cc-2cn1 (single isomer, unassigned) [Example 61A] | < 400 nM
46 | CCP1(=O)Cc2ccc(c(OC)c2)Nc2ncc(C(F)(F)F)c(n2)Nc2ccc(nc2C(=O)NC)-c2cnn(c2)CCCO1 (single isomer, unassigned) [Example 67A] | < 400 nM
